Data as given in ChEMBL document CHEMBL3991601, “The target landscape of clinical kinase drugs” (Science, 2017).
Calls of active or inactive are those of the source.

Tests used:
[1] = target: Guanine nucleotide-binding protein G(i) subunit alpha-2 (Homo sapiens, UniProt P04899)
[2] = target: Serine/threonine-protein kinase MRCK gamma (Homo sapiens, UniProt Q6DT37)
[3] = target: Hepatocyte growth factor receptor (Homo sapiens, UniProt P08581)
[4] = target: T1, Inhibitor of nuclear factor kappa-B kinase subunit epsilon (Homo sapiens, UniProt Q14164)
T1 sequence (Q14164 whole entry): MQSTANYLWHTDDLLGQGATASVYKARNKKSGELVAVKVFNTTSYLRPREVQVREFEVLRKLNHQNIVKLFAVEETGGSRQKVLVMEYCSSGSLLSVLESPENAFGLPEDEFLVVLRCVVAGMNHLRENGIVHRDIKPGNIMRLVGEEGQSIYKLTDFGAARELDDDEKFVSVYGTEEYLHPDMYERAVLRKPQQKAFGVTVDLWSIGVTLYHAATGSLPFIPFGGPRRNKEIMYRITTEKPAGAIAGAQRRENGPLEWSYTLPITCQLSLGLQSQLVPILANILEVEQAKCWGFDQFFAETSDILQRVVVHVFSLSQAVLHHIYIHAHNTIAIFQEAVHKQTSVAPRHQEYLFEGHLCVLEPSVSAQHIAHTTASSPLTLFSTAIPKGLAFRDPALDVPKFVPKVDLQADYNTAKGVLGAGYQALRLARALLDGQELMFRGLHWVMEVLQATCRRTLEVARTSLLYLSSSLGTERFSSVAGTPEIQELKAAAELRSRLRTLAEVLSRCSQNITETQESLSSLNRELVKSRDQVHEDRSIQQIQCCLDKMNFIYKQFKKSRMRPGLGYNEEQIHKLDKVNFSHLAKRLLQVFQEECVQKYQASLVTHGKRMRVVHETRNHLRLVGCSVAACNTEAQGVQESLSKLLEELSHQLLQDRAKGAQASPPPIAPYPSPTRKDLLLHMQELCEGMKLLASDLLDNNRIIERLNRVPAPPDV

[5] = target: T2, Thyroid hormone receptor-associated protein 3 (Homo sapiens, UniProt Q9Y2W1)
T2 sequence (Q9Y2W1 whole entry): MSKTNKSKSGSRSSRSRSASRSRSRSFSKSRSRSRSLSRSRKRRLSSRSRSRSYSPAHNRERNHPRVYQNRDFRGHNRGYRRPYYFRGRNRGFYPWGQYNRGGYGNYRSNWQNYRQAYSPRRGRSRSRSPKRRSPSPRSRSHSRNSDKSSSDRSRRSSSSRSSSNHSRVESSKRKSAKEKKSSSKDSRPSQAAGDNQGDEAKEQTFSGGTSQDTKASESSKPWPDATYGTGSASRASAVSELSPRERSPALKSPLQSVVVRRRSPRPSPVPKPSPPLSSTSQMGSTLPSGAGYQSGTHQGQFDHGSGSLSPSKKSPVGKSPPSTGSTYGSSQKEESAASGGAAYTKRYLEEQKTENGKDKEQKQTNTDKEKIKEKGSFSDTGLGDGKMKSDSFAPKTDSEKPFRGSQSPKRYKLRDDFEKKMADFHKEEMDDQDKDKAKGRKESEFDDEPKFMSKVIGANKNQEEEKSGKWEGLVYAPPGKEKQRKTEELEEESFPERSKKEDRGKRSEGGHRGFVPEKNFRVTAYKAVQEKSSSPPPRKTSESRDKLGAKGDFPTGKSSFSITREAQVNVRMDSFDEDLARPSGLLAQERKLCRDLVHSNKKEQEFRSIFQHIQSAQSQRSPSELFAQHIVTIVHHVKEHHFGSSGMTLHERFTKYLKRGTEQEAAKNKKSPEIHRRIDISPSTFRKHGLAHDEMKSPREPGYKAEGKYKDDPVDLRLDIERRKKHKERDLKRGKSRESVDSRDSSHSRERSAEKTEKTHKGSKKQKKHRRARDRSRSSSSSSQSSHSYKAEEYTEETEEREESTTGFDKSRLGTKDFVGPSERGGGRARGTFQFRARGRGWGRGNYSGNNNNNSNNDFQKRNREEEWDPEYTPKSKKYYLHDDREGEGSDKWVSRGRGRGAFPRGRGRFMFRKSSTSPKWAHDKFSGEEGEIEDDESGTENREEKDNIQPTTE

[6] = target: T3, Cyclin-dependent kinase-like 5 (Homo sapiens, UniProt O76039)
T3 sequence (O76039 whole entry): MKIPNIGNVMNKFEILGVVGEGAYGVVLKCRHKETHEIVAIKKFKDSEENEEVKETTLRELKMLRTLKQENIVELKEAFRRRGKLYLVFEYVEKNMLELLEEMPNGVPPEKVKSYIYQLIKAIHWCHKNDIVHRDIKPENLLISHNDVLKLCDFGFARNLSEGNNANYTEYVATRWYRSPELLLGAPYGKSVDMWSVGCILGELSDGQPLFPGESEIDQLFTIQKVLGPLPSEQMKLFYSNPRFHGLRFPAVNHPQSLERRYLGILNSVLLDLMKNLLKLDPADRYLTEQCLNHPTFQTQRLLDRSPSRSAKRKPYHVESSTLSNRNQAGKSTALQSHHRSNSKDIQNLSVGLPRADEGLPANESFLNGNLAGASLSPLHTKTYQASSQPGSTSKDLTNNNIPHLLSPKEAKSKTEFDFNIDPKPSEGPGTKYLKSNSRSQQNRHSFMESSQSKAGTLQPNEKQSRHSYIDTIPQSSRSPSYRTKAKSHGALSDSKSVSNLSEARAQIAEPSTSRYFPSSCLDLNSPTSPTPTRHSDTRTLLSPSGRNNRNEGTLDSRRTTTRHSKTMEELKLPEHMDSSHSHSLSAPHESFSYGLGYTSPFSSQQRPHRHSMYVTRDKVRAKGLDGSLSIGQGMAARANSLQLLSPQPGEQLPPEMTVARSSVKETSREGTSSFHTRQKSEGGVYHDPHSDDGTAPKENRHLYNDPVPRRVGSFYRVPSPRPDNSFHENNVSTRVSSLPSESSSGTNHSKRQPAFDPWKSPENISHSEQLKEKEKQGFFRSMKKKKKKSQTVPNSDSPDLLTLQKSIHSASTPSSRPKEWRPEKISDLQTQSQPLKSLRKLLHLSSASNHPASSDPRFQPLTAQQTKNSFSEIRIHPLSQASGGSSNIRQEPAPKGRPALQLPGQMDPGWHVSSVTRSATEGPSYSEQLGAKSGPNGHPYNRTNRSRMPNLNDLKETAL
Note: in the data inactive means no Kd found up to 30 µM.

Sequence of Hepatocyte growth factor receptor (P08581 whole entry): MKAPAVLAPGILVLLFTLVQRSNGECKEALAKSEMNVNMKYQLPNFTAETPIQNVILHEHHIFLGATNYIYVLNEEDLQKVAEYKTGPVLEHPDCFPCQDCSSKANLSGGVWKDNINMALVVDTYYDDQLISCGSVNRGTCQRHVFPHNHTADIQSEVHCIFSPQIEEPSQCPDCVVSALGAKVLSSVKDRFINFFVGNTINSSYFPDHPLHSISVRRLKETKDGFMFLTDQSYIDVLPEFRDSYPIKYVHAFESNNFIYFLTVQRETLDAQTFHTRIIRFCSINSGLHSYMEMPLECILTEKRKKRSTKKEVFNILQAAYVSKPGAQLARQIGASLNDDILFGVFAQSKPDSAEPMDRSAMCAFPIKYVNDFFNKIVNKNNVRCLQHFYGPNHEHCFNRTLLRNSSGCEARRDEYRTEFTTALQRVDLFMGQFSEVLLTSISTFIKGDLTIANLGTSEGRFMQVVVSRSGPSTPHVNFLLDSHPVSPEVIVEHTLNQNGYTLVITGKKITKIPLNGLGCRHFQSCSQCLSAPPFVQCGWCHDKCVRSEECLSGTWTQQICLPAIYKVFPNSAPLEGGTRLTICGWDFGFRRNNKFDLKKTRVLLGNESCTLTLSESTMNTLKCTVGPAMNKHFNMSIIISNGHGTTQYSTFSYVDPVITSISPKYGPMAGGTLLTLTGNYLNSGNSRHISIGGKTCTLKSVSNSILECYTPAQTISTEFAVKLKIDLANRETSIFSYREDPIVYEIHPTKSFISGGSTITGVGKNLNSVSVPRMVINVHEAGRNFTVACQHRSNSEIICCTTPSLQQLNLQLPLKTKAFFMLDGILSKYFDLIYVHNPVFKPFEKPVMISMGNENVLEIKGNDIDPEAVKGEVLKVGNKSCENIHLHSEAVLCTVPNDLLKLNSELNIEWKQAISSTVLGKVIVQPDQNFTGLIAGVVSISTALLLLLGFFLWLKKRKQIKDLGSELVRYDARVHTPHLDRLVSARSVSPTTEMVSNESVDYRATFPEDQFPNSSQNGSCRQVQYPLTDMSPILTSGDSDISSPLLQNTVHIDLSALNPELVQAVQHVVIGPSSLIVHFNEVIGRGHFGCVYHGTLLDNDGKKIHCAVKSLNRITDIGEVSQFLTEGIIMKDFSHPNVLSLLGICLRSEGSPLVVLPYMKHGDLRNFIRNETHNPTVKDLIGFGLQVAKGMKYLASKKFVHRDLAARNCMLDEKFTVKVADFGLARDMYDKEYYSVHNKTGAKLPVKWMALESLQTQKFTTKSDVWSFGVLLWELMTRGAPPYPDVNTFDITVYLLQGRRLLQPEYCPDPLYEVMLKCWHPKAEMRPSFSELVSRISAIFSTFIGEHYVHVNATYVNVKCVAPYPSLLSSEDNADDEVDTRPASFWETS
Sequence of Guanine nucleotide-binding protein G(i) subunit alpha-2 (P04899 whole entry): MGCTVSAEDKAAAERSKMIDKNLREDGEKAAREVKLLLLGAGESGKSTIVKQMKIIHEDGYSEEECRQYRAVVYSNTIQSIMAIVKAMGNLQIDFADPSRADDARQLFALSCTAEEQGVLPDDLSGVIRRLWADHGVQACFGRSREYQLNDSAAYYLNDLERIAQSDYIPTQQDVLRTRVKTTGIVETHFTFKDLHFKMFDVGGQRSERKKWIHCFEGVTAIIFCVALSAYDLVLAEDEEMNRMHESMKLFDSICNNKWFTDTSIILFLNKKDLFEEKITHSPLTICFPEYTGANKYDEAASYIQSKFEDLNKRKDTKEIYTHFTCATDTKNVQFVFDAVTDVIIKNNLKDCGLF
Sequence of Serine/threonine-protein kinase MRCK gamma (Q6DT37 whole entry): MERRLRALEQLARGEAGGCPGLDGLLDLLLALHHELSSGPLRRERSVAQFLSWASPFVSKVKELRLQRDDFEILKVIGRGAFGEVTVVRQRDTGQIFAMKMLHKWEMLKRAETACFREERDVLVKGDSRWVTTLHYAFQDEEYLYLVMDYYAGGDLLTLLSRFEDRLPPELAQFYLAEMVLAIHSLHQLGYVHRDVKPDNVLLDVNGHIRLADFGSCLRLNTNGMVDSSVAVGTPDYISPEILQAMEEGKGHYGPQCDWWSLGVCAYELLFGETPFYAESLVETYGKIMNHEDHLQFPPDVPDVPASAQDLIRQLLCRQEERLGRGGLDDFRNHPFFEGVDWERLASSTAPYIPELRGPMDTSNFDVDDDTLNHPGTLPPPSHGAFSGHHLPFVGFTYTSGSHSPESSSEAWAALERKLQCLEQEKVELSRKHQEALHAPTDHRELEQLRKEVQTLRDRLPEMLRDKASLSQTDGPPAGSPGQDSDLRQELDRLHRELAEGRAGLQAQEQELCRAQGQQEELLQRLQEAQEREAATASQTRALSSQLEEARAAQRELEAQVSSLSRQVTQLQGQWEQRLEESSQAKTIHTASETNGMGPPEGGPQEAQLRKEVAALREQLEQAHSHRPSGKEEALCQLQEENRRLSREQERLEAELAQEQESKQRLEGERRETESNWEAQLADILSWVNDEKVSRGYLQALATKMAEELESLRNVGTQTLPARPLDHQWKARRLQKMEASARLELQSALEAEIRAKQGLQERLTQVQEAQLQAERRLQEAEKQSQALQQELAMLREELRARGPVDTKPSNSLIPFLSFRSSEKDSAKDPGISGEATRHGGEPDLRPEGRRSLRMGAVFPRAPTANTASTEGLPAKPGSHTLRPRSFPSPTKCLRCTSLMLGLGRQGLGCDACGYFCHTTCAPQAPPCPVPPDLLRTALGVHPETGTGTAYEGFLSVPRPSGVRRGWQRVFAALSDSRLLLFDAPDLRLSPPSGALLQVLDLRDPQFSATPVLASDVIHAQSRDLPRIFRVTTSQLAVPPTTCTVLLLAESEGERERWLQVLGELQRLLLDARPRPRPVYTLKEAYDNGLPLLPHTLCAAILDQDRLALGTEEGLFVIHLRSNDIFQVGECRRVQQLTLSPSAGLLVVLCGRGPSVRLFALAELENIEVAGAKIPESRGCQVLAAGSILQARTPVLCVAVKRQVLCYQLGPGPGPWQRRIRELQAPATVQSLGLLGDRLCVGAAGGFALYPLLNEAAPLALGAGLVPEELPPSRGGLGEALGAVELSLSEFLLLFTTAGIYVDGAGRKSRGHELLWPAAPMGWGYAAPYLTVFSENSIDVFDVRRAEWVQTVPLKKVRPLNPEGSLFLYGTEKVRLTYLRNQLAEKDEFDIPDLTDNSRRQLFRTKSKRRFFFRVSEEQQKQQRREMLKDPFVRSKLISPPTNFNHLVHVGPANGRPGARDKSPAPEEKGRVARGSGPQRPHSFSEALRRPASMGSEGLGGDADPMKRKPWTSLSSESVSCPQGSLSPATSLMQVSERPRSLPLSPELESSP

Row | Kd [1] | Kd [2] | Kd [3] | Kd [4] | Kd [5] | Kd [6] | SMILES
1 | > 30 µM (inactive) | > 30 µM (inactive) |  |  |  |  | Cn1ncc(Cl)c1-c1cc(C(=O)N[C@H](CN)Cc2cccc(F)c2)sc1Cl [AFURESERTIB]
2 | > 30 µM (inactive) | > 30 µM (inactive) | > 30 µM (inactive) | > 30 µM (inactive) | > 30 µM (inactive) |  | CCCS(=O)(=O)Nc1ccc(F)c(C(=O)c2c[nH]c3ncc(-c4ccc(Cl)cc4)cc23)c1F [VEMURAFENIB]
3 | > 30 µM (inactive) | > 30 µM (inactive) | > 30 µM (inactive) | > 30 µM (inactive) | > 30 µM (inactive) |  | CCN1CCN(Cc2ccc(-c3cc4c(N[C@H](C)c5ccccc5)ncnc4[nH]3)cc2)CC1 [AEE-788]
4 | > 30 µM (inactive) | > 30 µM (inactive) |  |  | > 30 µM (inactive) | > 30 µM (inactive) | CC[C@H](Nc1ncnc2[nH]cnc12)c1nc2cccc(F)c2c(=O)n1-c1ccccc1 [IDELALISIB]
5 | > 30 µM (inactive) | > 30 µM (inactive) | > 30 µM (inactive) | > 30 µM (inactive) | > 30 µM (inactive) |  | CNS(=O)(=O)Nc1nccc(Cc2c(C)c3ccc(Oc4ncccn4)cc3oc2=O)c1F [AVUTOMETINIB]
6 | > 30 µM (inactive) | > 30 µM (inactive) | > 30 µM (inactive) | > 30 µM (inactive) | > 30 µM (inactive) |  | CO[C@H]1C[C@@H]2CC[C@@H](C)[C@@](O)(O2)C(=O)C(=O)N2CCCC[C@H]2C(=O)O[C@H]([C@H](C)C[C@@H]2CC[C@@H](OCCO)[C@H](OC)C2)CC(=O)[C@H](C)/C=C(\C)[C@@H](O)[C@@H](OC)C(=O)[C@H](C)C[C@H](C)/C=C/C=C/C=C/1C [EVEROLIMUS]
7 |  | > 30 µM (inactive) | > 30 µM (inactive) | > 30 µM (inactive) | > 30 µM (inactive) |  | CN1N=C(N)c2cn([C@@H]3O[C@H](COP(=O)(O)O)[C@@H](O)[C@H]3O)c3ncnc1c23 [TRICIRIBINE PHOSPHATE]
8 | > 30 µM (inactive) | > 30 µM (inactive) |  |  | > 30 µM (inactive) | > 30 µM (inactive) | OCCn1cc(-c2cnc3nnn(Cc4ccc5ncccc5c4)c3n2)cn1 [PF-04217903]
9 |  | > 30 µM (inactive) |  | > 30 µM (inactive) | > 30 µM (inactive) | > 30 µM (inactive) | O=c1sn(-c2cccc3ccccc23)c(=O)n1Cc1ccccc1 [TIDEGLUSIB]
10 | > 30 µM (inactive) | > 30 µM (inactive) |  | > 30 µM (inactive) |  | 2.04 µM | CNC(=O)c1ccc(-c2cnc3ncc(Cc4ccc5ncccc5c4)n3n2)cc1F [CAPMATINIB]
11 |  |  |  |  | > 30 µM (inactive) |  | Cc1nc(N)sc1-c1ccnc(Nc2ccc(N3CCOCC3)cc2)n1 [CYC-116]
12 | > 30 µM (inactive) | > 30 µM (inactive) | > 30 µM (inactive) | > 30 µM (inactive) | > 30 µM (inactive) |  | COc1cc2nccc(Oc3ccc(NC(=O)NC4CC4)c(Cl)c3)c2cc1C(N)=O [LENVATINIB]
13 | > 30 µM (inactive) |  | > 30 µM (inactive) | > 30 µM (inactive) |  |  | CNC(=O)c1ccc(C)c(-n2c(C)cc(OCc3ccc(F)cc3F)c(Br)c2=O)c1 [PH-797804]
14 | > 30 µM (inactive) | > 30 µM (inactive) |  |  | > 30 µM (inactive) |  | Cc1cc(Nc2cc(N3CCN(C)CC3)nc(/C=C/c3ccccc3)n2)n[nH]1 [ENMD-2076]
15 | > 30 µM (inactive) | > 30 µM (inactive) | > 30 µM (inactive) | > 30 µM (inactive) |  |  | CNC(=O)c1cc(Oc2ccc(NC(=O)Nc3ccc(Cl)c(C(F)(F)F)c3)c(F)c2)ccn1 [REGORAFENIB]
16 | > 30 µM (inactive) |  |  |  | > 30 µM (inactive) |  | Nc1nc(N)c2nc(-c3cccc(O)c3)c(-c3cccc(O)c3)nc2n1 [TG100-115]
17 | > 30 µM (inactive) | > 30 µM (inactive) | > 30 µM (inactive) | > 30 µM (inactive) | > 30 µM (inactive) |  | CCS(=O)(=O)N1CC(CC#N)(n2cc(-c3ncnc4[nH]ccc34)cn2)C1 [BARICITINIB]
18 |  |  |  |  | > 30 µM (inactive) |  | CCn1c(-c2nonc2N)nc2c(C#CC(C)(C)O)ncc(OC[C@H]3CCCNC3)c21 [GSK-690693]
19 | > 30 µM (inactive) | > 30 µM (inactive) |  |  |  |  | Cc1c(F)cc(C(=O)NC2CC2)cc1-c1ccc(C(=O)NCC(C)(C)C)cn1 [LOSMAPIMOD]
20 | > 30 µM (inactive) | > 30 µM (inactive) | > 30 µM (inactive) | > 30 µM (inactive) | > 30 µM (inactive) |  | CC[C@@H]1C(=O)N(C)c2cnc(Nc3ccc(C(=O)N[C@H]4CC[C@H](N5CCN(CC6CC6)CC5)CC4)cc3OC)nc2N1C(C)C [VOLASERTIB]
21 |  |  |  | > 30 µM (inactive) | > 30 µM (inactive) |  | C[C@@H](c1ccc2nccn2c1)n1nnc2ncc(-c3cnn(C)c3)nc21 [SAVOLITINIB]
22 | > 30 µM (inactive) | > 30 µM (inactive) | > 30 µM (inactive) | > 30 µM (inactive) | > 30 µM (inactive) |  | Cc1cc([C@@H](C)Nc2ccccc2C(=O)O)c2nc(N3CCOCC3)cc(=O)n2c1 [AZD-6482]
23 | > 30 µM (inactive) | > 30 µM (inactive) |  |  | > 30 µM (inactive) |  | CCn1c(=O)c(-c2cc[nH]n2)cc2c(C)nc(N)nc21 [VOXTALISIB]
24 | > 30 µM (inactive) | > 30 µM (inactive) | > 30 µM (inactive) | > 30 µM (inactive) | > 30 µM (inactive) |  | COc1ccc(-c2ccc3c(N4CCOC[C@@H]4C)nc(N4CCOC[C@@H]4C)nc3n2)cc1CO [AZD-8055]

Row | SMILES | Kd [1] | Kd [2] | Kd [3] | Kd [4] | Kd [5] | Kd [6]
25 | Cc1cn(-c2cc(NC(=O)c3ccc(C)c(Nc4nccc(-c5cccnc5)n4)c3)cc(C(F)(F)F)c2)cn1 [NILOTINIB] |  |  |  |  | > 30 µM (inactive) | 
26 | CN1CCC(COc2cnc(-c3cccc(Cn4nc(-c5cccc(C#N)c5)ccc4=O)c3)nc2)CC1 [TEPOTINIB] | > 30 µM (inactive) | > 30 µM (inactive) |  | > 30 µM (inactive) | > 30 µM (inactive) | 
27 | Cc1ccc(-n2nc(C(C)(C)C)cc2NC(=O)NCc2cc(F)ccc2Oc2ccc3c(cnn3CCO)c2)cc1 [PEXMETINIB] | > 30 µM (inactive) | > 30 µM (inactive) | > 30 µM (inactive) | > 30 µM (inactive) |  | 
